Data taken from patent US7498303B2, “GNRH analogues for treatment of urinary incontinence” (priority 2000, dated 2009).
Several values for one entry are separate records, joined by “and”; a condition that tells them apart may be missing. Identical values can stand only once. Counter-ions that a name gives are not always drawn.

Assays:
[1] = tested on: urinary incontinence after spaying; test: GnRH analogue slow release implant in bitches with urinary incontinence after spaying; assay type: in vivo, dog; conditions: slow release s.c. implant
Method: Additionally, for a limited period the dogs were treated with phenylpropanolamine in a dosage of 1.5 mg/kg BW tid orally.
After discontinuation of the shortacting phenylpropanolamine 8 bitches remained continent. Their continence was therefore achieved solely by the treatment with the composition as described in the present invention. Seven out of fifteen dogs seemed to be much happier and in none of the dogs did the general condition deteriorate. […] The respective results are shown in more detail in table 1.

stress incontinence = test: Menopausal person with stress incontinence, 24 hour pad test; assay type: in vivo, human; conditions: single dose of 3.75 mg, one person
Method: A second menopausal person, suffering from stress incontinence for at least 6 years, was treated with a single dose of 3.75 mg of leuprolide acetate. 24 hour pad tests conducted prior to treatment with the drug indicated they lost between 10 and 130 ml of urine on a daily basis due to their incontinence.

urinary incontinence = test: Double-blind, placebo-control study in client owned dogs suffering from urinary incontinence; assay type: in vivo, dog
Method: In a second ongoing study, 16 client owned dogs suffering from urinary incontinence were enrolled in a double-blind, placebo-control study. In the initial phase of the study, dogs were randomly assigned to treatment with a long-acting GnRH analogue (leuprolide acetate) or placebo (dog owners and the investigators were blinded to treatment) along with a short course of therapy with phenylpropanolamine. 5 weeks after treatment with drug or placebo, dogs were evaluated and, if not fully continent, treated with a long-acting GnRH analogue (leuprolide acetate) in an open label phase of the study. To date only 1 of 10 dogs treated with placebo became continent vs. […] treated with drug during the blinded portion of the study. Overall, the results generated thus far indicate […] dogs treated with the long-acting GnRH analogue became continent and […] improved after discontinuation of the short acting phenylpropanolamine. Only 1 dog of 15 treated with the GnRH analogue was considered not to have improved following treatment with the drug.

[2] = tested on: urinary incontinence of the bitch; conditions: 1.5 mg/kg BW p.o., given every 8 hours; cited from earlier work
[3] = tested on: excessive growth of the undercoat (baby coat) due to spaying; test: Excessive growth of the undercoat due to spaying in cocker spaniel bitches; assay type: in vivo, dog; conditions: 5 mg slow release s.c. implant
Method: Two cocker spaniel bitches belonging to the same owner were showing excessive growth of the undercoat due to spaying. […] Both dogs were first clinically examined and thereafter a GnRH analogue (Deslorelin) in a dosage of 5 mg, in slow release form, was subcutaneously implanted between the shoulder blades.

[4] = tested on: urge incontinence and hotflushes; test: Perimenopausal person with urge incontinence and hot flushes; assay type: in vivo, human; conditions: 3.75 mg; one perimenopausal person
[5] = 6,3 mg, without PPA, one dog per line
[6] = 11,25 mg, without PPA, one dog per line, listed as Leuprorelin acetate
[7] = 6 mg, without PPA, one dog per line
[8] = 12 mg, with PPA, one dog per line
[9] = 12 mg, without PPA, one dog per line

Buserelin acetate [Buserelinacetate]
Duration of effect after treatment [1, 5]: 44 days and 83 days
Effect on incontinence [1, 5]: 100%

CCNC(=O)[C@@H]1CCCN1C(=O)[C@H](CCCNC(=N)N)NC(=O)[C@H](CC(C)C)NC(=O)[C@@H](CC(C)C)NC(=O)[C@H](Cc1ccc(O)cc1)NC(=O)[C@H](CO)NC(=O)[C@H](Cc1c[nH]c2ccccc12)NC(=O)[C@H](Cc1c[nH]cn1)NC(=O)[C@@H]1CCC(=O)N1 [Leuprorelinacetate, leuprolide acetate]
Daily urine loss, pad test (stress incontinence; 2 weeks after treatment, before treatment 10 to 130 ml daily): 1 mL
Patient's judgement of the effects of the therapy (stress incontinence): very satisfied
Dogs that became continent during the blinded portion of the study (urinary incontinence; long-acting, with short course of phenylpropanolamine, evaluated 5 weeks after treatment, placebo 1 of 10): 3 to 8 dogs
Dogs considered not to have improved following treatment (urinary incontinence; of 15 treated): 1 dog
Dogs that became continent after discontinuation of phenylpropanolamine (overall) (urinary incontinence; of 15 treated, blinded and open label phases, ongoing study): 6 dogs
Remaining dogs that improved after discontinuation of phenylpropanolamine (urinary incontinence; of 15 treated, ongoing study): 9 dogs
Duration of effect after treatment ([1]; 11,25 mg, with PPA, one dog): >64 days
Effect on incontinence ([1]; 11,25 mg, with PPA, one dog): 100%
Duration of effect after treatment ([1]; 11,25 mg, without PPA, one dog per line): 0 days
Duration of effect after treatment [1, 6]: >14 days
Effect on incontinence [1, 6]: 100%

CC(N)C(O)c1ccccc1 (centres unmarked) [phenylpropanolamine]
Continence achieved [2]: 74%

Deslorelin acetate [Deslorelinacetate]
Side effects ([1]; 6 mg, one dog per line): More playfull
Duration of effect after treatment ([1]; 6 mg, with PPA, one dog): >336 days
Effect on incontinence ([1]; 6 mg, with PPA, one dog per line): 100%
Duration of effect after treatment [1, 7]: >47 days and >344 days and >340 days
Effect on incontinence [1, 7]: 100%
Duration of effect after treatment [1, 8]: 135 days and >318 days and >225 days
Effect on incontinence [1, 8]: 80% and 100% (2×)
Duration of effect after treatment [1, 9]: 64 days and >64 days and >209 days
Effect on incontinence [1, 9]: 100%

CCNC(=O)[C@@H]1CCCN1C(=O)[C@H](CCCN=C(N)N)NC(=O)[C@H](CC(C)C)NC(=O)[C@@H](Cc1c[nH]c2ccccc12)NC(=O)[C@H](Cc1ccc(O)cc1)NC(=O)[C@H](CO)NC(=O)[C@H](Cc1c[nH]c2ccccc12)NC(=O)[C@H](Cc1cnc[nH]1)NC(=O)[C@@H]1CCC(=O)N1 [Deslorelin]
Coat quality ([3]; 5 weeks after the injection, both of two dogs): obvious amelioration of the coat quality
Signs of baby coat ([3]; 21 weeks after injection, two dogs): no signes of “baby coat” were apparent anymore

Triptorelin acetate [Triptorelinacetate]
Period of improvement of both symptoms [4]: about 4 weeks
Urge incontinence and hotflushes, patient report [4]: improved considerably
Duration of effect after treatment ([1]; 3,75 mg, footnote: dose too low, one dog): 0

CN[C@@H](C)[C@H](O)c1ccccc1 [ephedrinhydrochloride]
Continence achieved [2]: 74%
